From US20260216294A1, “BETA 2-ADRENERGIC RECEPTOR AGONISTS FOR TREATMENT OR PREVENTION OF MUSCLE WASTING” (ATROGI AB, priority 2023, published 2026)

Assays:
L6-myotubes [1] = test: Glucose uptake in differentiated L6-myotubes (Biological Example 2); assay type: cell-based; conditions: for Emax at 10 µM: read-out: Biological example 2 (GU)
Procedure, shortened: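 Uptake was quantified as radioactivity in 0.2 M NaOH lysates after a 10 min pulse of 50 nM ^3H-2-deoxyglucose. The pulse followed two agonist exposures at 1×10^−5 M final (isoprenaline or test compound): 1 h 40 min, then 20 min in glucose-free medium after washing. L6 myotubes had been starved overnight in medium with 0.5% fatty-acid-free BSA.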

L6-myotubes [2] = test: Measurement of intracellular cAMP levels in differentiated L6-myotubes (Biological Example 3); assay type: cell-based; conditions: for Emax at 10 µM: 0.25 h
Procedure, shortened: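 Intracellular cAMP quantified by AlphaScreen after ethanol extraction and lysis of L6 myotubes. Cells were serum-starved overnight, then exposed for 15 min to compound (final 1×10^−5 M) or isoprenaline in IBMX-containing (1 mM) HBSS buffer, pH 7.4.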

[3] = glucose uptake in differentiated L6-myotubes, compound at 10 μM, activity relative to isoproterenol at 10 μM
[4] = intracellular cAMP in differentiated L6-myotubes, compound at 10 μM, activity relative to isoproterenol at 10 μM
[5] = glucose uptake, compound at 10 μM relative to isoproterenol at 10 μM
[6] = intracellular cAMP, compound at 10 μM relative to isoproterenol at 10 μM

SMILES | Emax at 10 µM (L6-myotubes [1]; [3]) | Emax at 10 µM (L6-myotubes [2]; [4]) | Emax at 10 µM (L6-myotubes [1]; [5]) | Emax at 10 µM (L6-myotubes [2]; [6]) | other results
CC(C)(C[C@H]1CC[C@@H](S(N)(=O)=O)CC1)NC[C@H](O)c1cncc(F)c1 [Compound 519, (1S,4s)-4-{2-[(R)-2-(5-fluoro-3-pyridyl)-2-hydroxyethylamino]-2-methylpropyl} cyclohexanesulfonamide] | > 75% | < 25% |  |  | 
CCCCNC[C@H](O)c1ccccc1F [Compound 79, (R)-2-(butylamino)-1-(o-fluorophenyl)-1-ethanol] |  |  | > 75% | < 25% | 
CCCCNC[C@H](O)c1csc(C(F)(F)F)n1 [Compound 72, (S)-2-(butylamino)-1-[2-(trifluoromethyl)-1,3-thiazol-4-yl]-1-ethanol] |  |  | 25 to 50% | < 25% | 
COc1ccc(C[C@H]2CC[C@H]([C@H](O)c3cncc(F)c3)N2)cc1 [Compound 379, (R)-{(2R,5R)-5-[(p-methoxyphenyl)methyl]-2-pyrrolidinyl}(5-fluoro-3-pyridyl)methanol] | > 75% | < 25% |  |  | 
O[C@@H](CNCC[C@H]1CC[C@@H](OCc2ccccc2)CC1)c1cncc(F)c1 [Compound 291, (R)-1-(5-fluoro-3-pyridyl)-2-{2-[(1s,4S)-4-(benzyloxy)cyclohexyl]ethylamino}-1-ethanol] | 50 to 75% | < 25% |  |  | 
CC(C)(C)NC[C@H](O)c1cccc(C(F)(F)F)n1 [Compound 397, (S)-2-(tert-butylamino)-1-[6-(trifluoromethyl)-2-pyridyl]-1-ethanol] | > 75% | < 25% |  |  | 
CC1(C)C[C@H]([C@H](O)c2cccc(F)c2)N1 [Compound 198, (R)-[(R)-4,4-dimethyl-2-azetidinyl](m-fluorophenyl)methanol] | > 75% | < 25% |  |  | 
CC(C)(C[C@H]1CC[C@H](N)CC1)NC[C@H](O)c1cccc(C#N)n1 [Compound 417] | > 75% | 25 to 50% |  |  | 
CC(C)(CC[C@H]1CC[C@H](O)CC1)NC[C@H](O)c1ccccc1F [Compound 319, (R)-2-{1,1-dimethyl-3-[(1r,4S)-4-hydroxycyclohexyl]propylamino}-1-(o-fluorophenyl)-1-ethanol] | > 75% | < 25% |  |  | 
CC(C)(C)NCC(O)c1ccc(O)cc1 (stereo not drawn) [Compound 4, 2-(tert-butylamino)-1-(p-hydroxyphenyl)-1-ethanol] |  |  | > 75% | 25 to 50% | 
CC(C)(NC[C@H](O)c1cncc(F)c1)[C@H]1CC[C@H](C(=O)O)CC1 [Compound 390, (1R,4r)-8-[(R)-2-(5-fluoro-3-pyridyl)-2-hydroxyethylamino]-7-hydroxy-p-menthan-7-one] | 50 to 75% | < 25% |  |  | 
CCCCNC[C@H](O)c1ccc(F)c(O)c1 [Compound 85, (R)-2-(butylamino)-1-(4-fluoro-3-hydroxyphenyl)-1-ethanol] |  |  | > 75% | < 25% | 
CCCC(C)NCC(O)c1cc(Cl)c(N)c(Cl)c1 (stereo not drawn) [Compound 22, 1-(4-amino-3,5-dichlorophenyl)-2-(1-methylbutylamino)-1-ethanol] |  |  | > 75% | 50 to 75% | 
O[C@@H](c1cccc(F)c1)C12CCC(CCc3ccc(Cl)cc3)(CC1)N2 [Compound 527, (S)-{4-[2-(p-chlorophenyl)ethyl]-7-azabicyclo[[2.2.1]]hept-1-yl}(m-fluorophenyl)methanol] | < 25% | < 25% |  |  | 
CO[C@H]1CC[C@H](CCC23CCC([C@@H](O)c4cccc(F)c4)(CC2)N3)CC1 [Compound 411] |  |  |  |  | Biological example 2 (GU) (L6-myotubes [1]; [3]): +++ (If a compound at 10 μM shows activity of more than 75% of that of isoproterenol at 10 μM, the activity is denoted with +++); Biological example 3 (CAMP) (L6-myotubes [2]; [4]): ++ (if it is between 75 and 50% it is denoted with ++)
CC(=O)N(Cc1ccccc1)[C@H]1CC[C@H](C[C@@H]2CC[C@H]([C@@H](O)c3cccc(F)c3)N2)CC1 [Compound 481, N-[(1S,4r)-4-({(2S,5R)-5-[(S)-(m-fluorophenyl) hydroxymethyl]-2-pyrrolidinyl}methyl)cyclohexyl]-N-benzylacetamide] | < 25% | < 25% |  |  | 
CC(C)(C)NC[C@H](O)c1cccc(C#N)n1 [Compound 387, 6-[(S)-2-(tert-butylamino)-1-hydroxyethyl]-2-pyridinecarbonitrile] | > 75% | 25 to 50% |  |  | 
CC1(C)CCC[C@@H]([C@H](O)c2cccc(F)c2)N1 [Compound 190] |  |  | > 75% | < 25% | 
O[C@@H](CNC[C@H]1CC[C@H](OCc2ccccc2)CC1)c1cncc(F)c1 [Compound 273, (R)-1-(5-fluoro-3-pyridyl)-2-({[(1r,4R)-4-(benzyloxy)cyclohexyl]methyl}amino)-1-ethanol] | 25 to 50% | < 25% |  |  | 
CC(C)(NC[C@H](O)c1cccc(F)c1)[C@H]1CC[C@@H](O)CC1 [Compound 284, (R)-1-(m-fluorophenyl)-2-{1-methyl-1-[(1s,4S)-4-hydroxycyclohexyl]ethylamino}-1-ethanol] | 50 to 75% | < 25% |  |  | 
CCC[C@H]1CCC[C@H]([C@H](O)c2cccc(O)c2)N1 [Compound 64, (R)-[(2R,6S)-6-propyl-2-piperidyl](m-hydroxyphenyl)methanol] |  |  | > 75% | < 25% | 
CC(=O)N(C)[C@H]1CC[C@H](CC(C)(C)NC[C@H](O)c2cncc(F)c2)CC1 [Compound 506] | > 75% | 25 to 50% |  |  | 
CC(C)(C)NC[C@H](O)c1ccncc1F [Compound 108, (R)-2-(tert-butylamino)-1-(3-fluoro-4-pyridyl)-1-ethanol] |  |  | 25 to 50% | < 25% | 
CC(C)(C[C@H]1CC[C@H](NC(=O)c2ccccc2)CC1)NC[C@H](O)c1cccc(F)c1 [Compound 384] | > 75% | > 75% |  |  | 
CCCCNCC(O)c1ccc(Cl)c(O)c1 (stereo not drawn) [Compound 34, 2-(butylamino)-1-(4-chloro-3-hydroxyphenyl)-1-ethanol] |  |  | > 75% | < 25% | 
O[C@@H](CNCC[C@H]1CC[C@@H](O)CC1)c1cncc(F)c1 [Compound 293, (R)-1-(5-fluoro-3-pyridyl)-2-{2-[(1s,4S)-4-hydroxycyclohexyl]ethylamino}-1-ethanol] | 25 to 50% | < 25% |  |  | 
O[C@H](c1cccc(F)c1)[C@H]1CCC2(CCCC2)N1 [Compound 168] |  |  | 50 to 75% | 25 to 50% | 
CCC[C@@H]1CC[C@H]([C@@H](O)c2cccc(F)c2)N1 [Compound 126] |  |  | 25 to 50% | < 25% | 
O=C(N[C@H]1CC[C@H](CNC[C@H](O)c2cccc(F)c2)CC1)c1ccccc1 [Compound 315, N-[(1R,4r)-4-{[(R)-2-(m-fluorophenyl)-2-hydroxyethylamino]methyl}cyclohexyl] benzamide] | > 75% | < 25% |  |  | 
O[C@@H](CNCCC[C@H]1CC[C@@H](OCc2ccccc2)CC1)c1cncc(F)c1 [Compound 275, (R)-1-(5-fluoro-3-pyridyl)-2-{3-[(1s,4R)-4-(benzyloxy)cyclohexyl]propylamino}-1-ethanol] | 50 to 75% | < 25% |  |  | 
